Experimental data taken from PubChem BioAssay AID248 (DTP/NCI, 2004).
Values joined by “and” are separate entries in the source; they are usually repeats but may differ in a detail not shown here. Equal values may be shown once. Inconclusive results and toxic doses are left out. Square brackets hold non-standard residues; d marks the D form. Peptide text beside a SMILES is read from it. * marks the point of attachment. Cbz = O=C(OCc1ccccc1)*; Abu = CC[CH](N)C(=O)O; OBn = c1ccc(CO*)cc1

Tested on: L1210 leukemia ip in BDF1 mice, survival T/C
Experiment: NCI In Vivo Anticancer Drug Screen. Data for tumor model L1210 Leukemia (intraperitoneal) in B6D2F1 (BDF1) mice
Details: endpoint: mean survival time, higher = longer survival
Summary of the method: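 Transplantable tumor model; survival measured in treated vs vehicle control mice. Value = treated/control.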

[1] = dose: 100.0 mg/kg/injection, schedule: Q01DX009 (ip), vehicle: Klucel (hydroxypropylcellulose) (HPC)
[2] = dose: 100.0 mg/kg/injection, schedule: Q04DX003 (ip), vehicle: Klucel (hydroxypropylcellulose) (HPC)
[3] = dose: 200.0 mg/kg/injection, schedule: Q01DX009 (ip), vehicle: Klucel (hydroxypropylcellulose) (HPC)
[4] = dose: 200.0 mg/kg/injection, schedule: Q04DX003 (ip), vehicle: Klucel (hydroxypropylcellulose) (HPC)
[5] = dose: 400.0 mg/kg/injection, schedule: Q01DX009 (ip), vehicle: Klucel (hydroxypropylcellulose) (HPC)
[6] = dose: 400.0 mg/kg/injection, schedule: Q04DX003 (ip), vehicle: Klucel (hydroxypropylcellulose) (HPC)
[7] = dose: 100.0 mg/kg/injection, schedule: Q04DX002 (ip), vehicle: Klucel (hydroxypropylcellulose) (HPC)
[8] = dose: 200.0 mg/kg/injection, schedule: Q04DX002 (ip), vehicle: Klucel (hydroxypropylcellulose) (HPC)
[9] = dose: 100.0 mg/kg/injection, schedule: Q04DX003 (ip), vehicle: saline with Tween-80
[10] = dose: 100.0 mg/kg/injection, schedule: Q01DX009 (ip), vehicle: saline with Tween-80
[11] = dose: 100.0 mg/kg/injection, schedule: Q01DX001 (ip), vehicle: Klucel (hydroxypropylcellulose) (HPC)
[12] = dose: 200.0 mg/kg/injection, schedule: Q01DX001 (ip), vehicle: Klucel (hydroxypropylcellulose) (HPC)
[13] = dose: 400.0 mg/kg/injection, schedule: Q01DX001 (ip), vehicle: Klucel (hydroxypropylcellulose) (HPC)
[14] = dose: 100.0 mg/kg/injection, schedule: Q01DX001 (ip), vehicle: saline
[15] = dose: 200.0 mg/kg/injection, schedule: Q01DX001 (ip), vehicle: saline
[16] = dose: 400.0 mg/kg/injection, schedule: Q01DX001 (ip), vehicle: saline
[17] = dose: 200.0 mg/kg/injection, schedule: Q01DX009 (ip), vehicle: saline with Tween-80
[18] = dose: 400.0 mg/kg/injection, schedule: Q01DX009 (ip), vehicle: saline with Tween-80
[19] = dose: 100.0 mg/kg/injection, schedule: Q01DX Z (ip), vehicle: methylcellulose (MC)

CCCCCCCCCCCCCCCCCC(N)=O
T/C [1]: 87 % of control | T/C [2]: 102 % of control | T/C [3]: 87 % of control | T/C [4]: 95 % of control | T/C [5]: 117 % of control | T/C [6]: 96 % of control

O=Cc1cc(=O)[nH]c(S)[n+]1-c1ccccc1
T/C (dose: 50.0 mg/kg/injection, schedule: Q04DX002 (ip), vehicle: Klucel (hydroxypropylcellulose) (HPC)): 96 % of control | T/C [7]: 96 % of control | T/C [8]: 101 % of control

NC(CO)C(O)c1ccc(N=Nc2ccc(O)cc2)cc1 (stereo not given)
T/C [9]: 90 % of control

CCC(C)(C(=O)NO)c1ccccc1 (stereo not given)
T/C (dose: 100.0 mg/kg/injection, schedule: Q01DX001 (ip), vehicle: saline with Tween-80): 110 % of control | T/C (dose: 200.0 mg/kg/injection, schedule: Q01DX001 (ip), vehicle: saline with Tween-80): 101 % of control

O=C(Nc1ccc(Cl)c(Cl)c1)Sc1ccc(Cl)cc1
T/C (dose: 25.0 mg/kg/injection, schedule: Q01DX009 (ip), vehicle: saline with Tween-80): 100 % of control | T/C (dose: 50.0 mg/kg/injection, schedule: Q01DX009 (ip), vehicle: saline with Tween-80): 103 % of control | T/C [10]: 101 % of control

CN(C(=O)NCCCl)c1cccc2c1CCCC2
T/C [11]: 97 % of control | T/C [12]: 105 % of control | T/C [13]: 111 % of control

O=C(O)Cc1ccc(Cl)cc1Cl
T/C (dose: 50.0 mg/kg/injection, schedule: Q04DX003 (ip), vehicle: Klucel (hydroxypropylcellulose) (HPC)): 93 % of control | T/C [2]: 98 % of control | T/C [4]: 98 % of control

C#CC1(N2CCCCC2)CCCCC1
T/C [7]: 102 % of control | T/C [8]: 98 % of control

CC(=O)NC(Cc1ccsc1)(C(=O)O)C(=O)O
T/C [14]: 93 % of control | T/C [15]: 98 % of control | T/C [16]: 98 % of control

CCOC(=O)C12CCC=C1N(S(=O)(=O)N(C)C)c1ccc(NS(=O)(=O)N(C)C)cc12 (stereo not given)
T/C (dose: 45.0 mg/kg/injection, schedule: Q04DX003 (ip), vehicle: Klucel (hydroxypropylcellulose) (HPC)): 105 % of control | T/C (dose: 65.0 mg/kg/injection, schedule: Q04DX003 (ip), vehicle: Klucel (hydroxypropylcellulose) (HPC)): 105 % of control | T/C [11]: 97 % of control | T/C [2]: 105 % of control and 120 % of control | T/C [12]: 104 % of control | T/C [4]: 89 % of control | T/C [13]: 98 % of control | T/C [6]: 97 % of control

O=C(/C=C/c1ccc(F)cc1)c1ccc(Cl)cc1
T/C [10]: 101 % of control | T/C [9]: 96 % of control | T/C [17]: 92 % of control | T/C (dose: 200.0 mg/kg/injection, schedule: Q04DX003 (ip), vehicle: saline with Tween-80): 90 % of control | T/C [18]: 103 % of control | T/C (dose: 400.0 mg/kg/injection, schedule: Q04DX003 (ip), vehicle: saline with Tween-80): 94 % of control

CC(=O)c1ccc(NCc2cnc3nc(N)nc(N)c3n2)cc1
T/C (dose: 20.0 mg/kg/injection, schedule: Q01DX009 (ip), vehicle: Klucel (hydroxypropylcellulose) (HPC)): 102 % of control | T/C (dose: 40.0 mg/kg/injection, schedule: Q01DX009 (ip), vehicle: Klucel (hydroxypropylcellulose) (HPC)): 105 % of control | T/C (dose: 80.0 mg/kg/injection, schedule: Q01DX009 (ip), vehicle: Klucel (hydroxypropylcellulose) (HPC)): 105 % of control

CCCSc1ccc(N2C(N)=NC(N)=NC2(C)C)cc1
T/C (dose: 12.5 mg/kg/injection, schedule: Q01DX001 (ip), vehicle: saline): 98 % of control | T/C (dose: 12.5 mg/kg/injection, schedule: Q04DX003 (ip), vehicle: saline): 98 % of control | T/C (dose: 18.75 mg/kg/injection, schedule: Q01DX009 (ip), vehicle: saline with Tween-80): 101 % of control | T/C (dose: 25.0 mg/kg/injection, schedule: Q01DX001 (ip), vehicle: saline): 108 % of control | T/C (dose: 25.0 mg/kg/injection, schedule: Q04DX003 (ip), vehicle: saline): 93 % of control | T/C (dose: 37.5 mg/kg/injection, schedule: Q01DX009 (ip), vehicle: saline with Tween-80): 96 % of control | T/C (dose: 50.0 mg/kg/injection, schedule: Q01DX001 (ip), vehicle: saline): 108 % of control | T/C (dose: 50.0 mg/kg/injection, schedule: Q04DX003 (ip), vehicle: saline): 104 % of control | T/C (dose: 75.0 mg/kg/injection, schedule: Q04DX003 (ip), vehicle: saline): 97 % of control

Cc1cc2c3ccccc3nc(C(F)(F)F)n2n1
T/C [10]: 97 % of control | T/C [17]: 103 % of control | T/C [18]: 95 % of control

Cc1ccc(S(=O)(=O)Nc2ccccc2N=Cc2ccc([N+](=O)[O-])cc2[N+](=O)[O-])cc1
T/C (dose: 75.0 mg/kg/injection, schedule: Q01DX001 (ip), vehicle: carboxymethylcellulose (CMC)): 97 % of control | T/C (dose: 150.0 mg/kg/injection, schedule: Q01DX001 (ip), vehicle: carboxymethylcellulose (CMC)): 104 % of control | T/C (dose: 300.0 mg/kg/injection, schedule: Q01DX001 (ip), vehicle: carboxymethylcellulose (CMC)): 92 % of control

CCOC(=O)c1ccc(NC(=O)Sc2ccc(C(C)(C)C)cc2C)cc1
T/C [10]: 96 % of control | T/C [17]: 100 % of control

O=S1(=O)C=C(Br)C1
T/C [7]: 94 % of control and 106 % of control | T/C [8]: 106 % of control

Cc1c(C(=O)O)[nH]c(=O)[nH]c1=O
T/C [19]: 90 % of control | T/C (dose: 200.0 mg/kg/injection, schedule: Q01DX Z (ip), vehicle: methylcellulose (MC)): 97 % of control

CC(CN1CC(=O)NC(=O)C1)N1CC(=O)NC(=O)C1.[Cl][Pt][Cl] (stereo not given)
T/C (dose: 12.5 mg/kg/injection, schedule: Q04DX003 (ip), vehicle: water): 106 % of control | T/C (dose: 25.0 mg/kg/injection, schedule: Q04DX003 (ip), vehicle: water): 97 % of control | T/C (dose: 50.0 mg/kg/injection, schedule: Q04DX003 (ip), vehicle: water): 109 % of control | T/C (dose: 100.0 mg/kg/injection, schedule: Q01DX009 (ip), vehicle: water): 108 % of control | T/C (dose: 100.0 mg/kg/injection, schedule: Q04DX003 (ip), vehicle: water): 106 % of control and 107 % of control | T/C (dose: 200.0 mg/kg/injection, schedule: Q01DX009 (ip), vehicle: water): 121 % of control | T/C (dose: 200.0 mg/kg/injection, schedule: Q04DX003 (ip), vehicle: water): 101 % of control | T/C (dose: 400.0 mg/kg/injection, schedule: Q01DX009 (ip), vehicle: water): 160 % of control | T/C (dose: 400.0 mg/kg/injection, schedule: Q04DX003 (ip), vehicle: water): 118 % of control

COc1nc(=S)nc(OC)[nH]1
T/C [19]: 95 % of control

CCC(NC(=O)OCc1ccccc1)C(=O)NC(Cc1ccc(O)cc1)C(=O)OCc1ccccc1 (stereo not given) (Cbz-[Abu]-Tyr-OBn; configuration not given here)
T/C [1]: 102 % of control | T/C [3]: 91 % of control | T/C [5]: 99 % of control

O=C(O)c1ccc(NCO)cc1
T/C (dose: 100.0 mg/kg/injection, schedule: Q04DX003 (ip), vehicle: acetone): 94 % of control | T/C (dose: 200.0 mg/kg/injection, schedule: Q04DX003 (ip), vehicle: acetone): 102 % of control | T/C (dose: 400.0 mg/kg/injection, schedule: Q04DX003 (ip), vehicle: acetone): 108 % of control

CCOC(=O)c1c[nH]c2cc([N+](=O)[O-])ccc2c1=O
T/C (dose: 25.0 mg/kg/injection, schedule: Q04DX003 (ip), vehicle: saline with Tween-80): 91 % of control | T/C (dose: 50.0 mg/kg/injection, schedule: Q04DX003 (ip), vehicle: saline with Tween-80): 86 % of control

O=Cc1cc(Br)ccc1[N+](=O)[O-]
T/C [14]: 103 % of control | T/C [15]: 103 % of control | T/C [16]: 101 % of control
